Tested on: statin-intolerant patients with or at high risk of CVD
Assay type: in vivo
From the text: The CLEAR OUTCOMES trial was a randomized, placebo-controlled, double-blind trial that enrolled patients at 1250 sites in 32 countries. An independent Data Monitoring Committee reviewed safety and efficacy data during the trial.
Patients 18 to 85 years of age were eligible for enrollment if they met either of two criteria for increased cardiovascular risk, a prior cardiovascular event (secondary prevention) or clinical features that placed them at high risk for a cardiovascular event (primary prevention). (Nicholls S. Lincoff A M, Bays H E, et al. Rationale and design of the CLEAR-outcomes trial: Evaluating the effect of bempedoic acid on cardiovascular events in patients with statin intolerance. Am Heart J. 2021 May; 235:104-112) All patients provided written informed consent. Patients had to report statin intolerance due to an adverse effect that started or increased during statin therapy and resolved or improved after statin therapy was discontinued. Patients could be enrolled if they tolerated a very low average daily statin dose (e.g., an average daily dose of rosuvastatin <5 mg, atorvastatin <10 mg, simvastatin <10 mg, lovastatin <20 mg, pravastatin <40 mg, fluvastatin <40 mg, or pitavastatin <2 mg). Other lipid-lowering therapies were permitted, including ezetimibe, niacin, bile acid resins, fibrates, and/or proprotein convertase subtilisin kexin type 9 (PCSK9) inhibitors. Full inclusion and exclusion criteria are provided in Nicholls et al. (Am Heart J. 2021).
Eligible patients entered a 4-week run-in period during which patients were treated with single-blind placebo. If patients were intolerant to placebo treatment or if adherence was <80% by tablet count, they were not eligible for randomization. Patients who successfully completed the run-in period were randomly assigned in a 1:1 ratio to receive bempedoic acid at an oral dose of 180 mg or matching placebo, administered daily. Beginning 6 months after enrollment, the central laboratory notified the investigator if the patient's LDL-cholesterol level was ≥25% higher than baseline. These patients were counseled on healthy dietary guidelines and reminded to take all lipid-regulating medications. If repeat testing confirmed that LDL-cholesterol value met the threshold criteria, the provider could adjust the lipid-lowering treatment regimen per standard of care and local guidelines.
The primary end point was the first occurrence of a composite of death from cardiovascular causes, nonfatal myocardial infarction (MI), nonfatal stroke, or coronary revascularization. The first key secondary end point was time to the first occurrence of the composite of cardiovascular death, nonfatal stroke, or MI. Further key secondary end points included time to first occurrence of each of the following outcomes tested in hierarchical order, fatal or nonfatal MI, coronary revascularization, fatal or nonfatal stroke, death from cardiovascular causes, and all-cause mortality.
This was an event-driven trial designed to provide at least 90% power to detect a 15% relative risk reduction for the primary composite end point at an overall two-sided significance level of 0.05. The trial required a minimum of 1620 primary composite events with ≥24 months of follow-up for all patients and at least 810 first key secondary end points. The average treatment duration was estimated to be 42 months and a lost-to-follow-up rate of 1% per year. Assuming a 3.59% annual event rate in the placebo group, enrollment of 12,600 patients was required, subsequently amended to 14,000. There were no interim efficacy analyses. A hierarchical approach was prespecified to evaluate sequentially each of the six key secondary efficacy end points with statistical significance at each step required to test the next hypothesis, thereby preserving the study-wise Type I error rate at 5%. All analyses were based on the intent-to-treat principle. […]

[1] = full population, 180 mg oral daily, N = 6992

For `CC(C)(CCCCCC(O)CCCCCC(C)(C)C(=O)O)C(=O)O` [Bempedoic Acid, Bempedoic acid], the “effect on other key secondary end points (time to first occurrence of stroke, death from cardiovascular causes, all-cause mortality)” value (compared with placebo, full population) was “no significant effects”, the “3-component MACE, % of patients” value [1] was “(8.2) %” and the “Coronary revascularization, % of patients” value [1] was “(6.2) %”. The “Fatal and non-fatal MI, % of patients” value [1] was “(3.7) %”, the “Primary efficacy endpoint (MACE-4), % of patients” value [1] was “(11.7) %” and the “New-onset type 2 diabetes mellitus, Hazard Ratio” value (human, in vivo) was 0.95. For the same molecule, the “reduction in risk of non-fatal myocardial infarction” value (vs placebo, 180 mg oral daily) was “about 27%”, the “3-component MACE, Hazard Ratio” value (vs placebo, full population) was 0.85 and the “5 component MACE, Hazard Ratio” value (vs placebo, full population) was 0.86. For the same molecule, the “All-cause mortality, nonfatal MI, nonfatal stroke, or coronary revascularization, Hazard Ratio” value (vs placebo, full population) was 0.89, the “Coronary revascularization, Hazard Ratio” value (vs placebo, full population) was 0.81 and the “Fatal and non-fatal MI, Hazard Ratio” value (vs placebo, full population) was 0.77. For the same molecule, the “Fatal and non-fatal stroke, Hazard Ratio” value (vs placebo, full population) was 0.85, the “Fatal and nonfatal non-hemorrhagic stroke, Hazard Ratio” value (vs placebo, full population) was 0.78 and the “Hospitalization for unstable angina, Hazard Ratio” value (vs placebo, full population) was 0.66. For the same molecule, the “Non-fatal MI, Hazard Ratio” value (vs placebo, full population) was 0.73, the “Non-fatal stroke, Hazard Ratio” value (vs placebo, full population) was 0.82 and the “Primary efficacy endpoint (MACE-4), Hazard Ratio” value (vs placebo, full population) was 0.87.

Source: patent US20240226049A1, “METHODS OF TREATMENT USING BEMPEDOIC ACID” (Esperion Therapeutics, Inc., priority 2023, published 2024)
